Source: patent US8026219B2, “Antimicrobial linear peptides” (Universitat de Girona, priority 2006, dated 2011)
Starred links: 1 amine or outer side, 2 acyl side, 3 side chain; linkers in the order of their positions; H or OH if unused. Non-standard residues stand in square brackets, D forms with d. Residues, ends and D or L forms follow the SMILES beside them. No end group written: not given here. *: point of attachment. X1 = O=C([C@H](Cc1c[nH]c2ccccc12)N(Cc1ccccc1)[*:1])[*:2]; Tos = Cc1ccc(S(=O)(=O)*)cc1

Tests used:
[1] = tested on: Erwinia amylovora PMV6076; experiment: Minimum inhibitory concentration (MIC), microbial growth by optical density; format: cell-based; settings: 48 h incubation at 25° C., TSB medium
Procedure: (§1) Each experiment was performed twice.

[2] = tested on: Pseudomonas syringae EPS94; experiment: as above; format: cell-based; settings: 48 h incubation at 25° C., TSB medium
Procedure: as §1

[3] = tested on: erythrocytes from fresh human blood; settings: 5% erythrocytes, 1 h at 37° C., relative to 200 μM melittin; for % Haemolysis 50 μM: 50 μM peptide; for % Haemolysis 150 μM: 150 μM peptide; for % Haemolysis 250 μM: 250 μM peptide
Procedure: A description of the methodology used to determine the haemolytic activity is found in Oren et al, Biochemistry, 2000, 39, 6103-6114, and in Raguse et al., J. Am. Chem. Soc., 2002, 124, 12774-12785.
The haemolytic activity of the peptides of the invention was evaluated by determining the release of haemoglobin which is produced on placing in contact a solution of the peptides with a suspension of erythrocytes 5% by volume, from fresh human blood.
The blood was collected aseptically using a Vactainer® K2E system (Belliver, Great Britain) with EDTA and it was stored at 4° C. for a period lower than 2 hours.
The blood was centrifuged at 6000 g for 5 minutes to separate the erythrocytes. There were washed three times with TRIS buffer (10 mM TRIS, 150 mM NaCl, pH 7.2) and they were resuspended in TRIS buffer until obtaining a suspension which contained 10% by volume of erythrocytes.
The peptides were solubilized in TRIS buffer until a final concentration of 100, 300 and 500 μM
The replicas were used for each peptide and concentration.
65 μl of 10% erythrocyte suspension was mixed with 65 μl of the peptide solution in each well of a 96-well plate (Micro-Amp®, Applied Biosystems, USA) (5% by volume of erythrocytes) and the mixture was incubated for 1 h at 37° C. under stirring. In this way, the erythrocyte suspensions were subjected to peptide concentrations of 50, 150 and 250 μM.
Next, the plates were centrifuged at 3500 g during 10 minutes and aliquots were transferred of 80 μl of supernatant to microplates with 100 wells (Bioscreen), which were diluted with 80 μl of milli-Q water.
The degree of haemolysis was determined from the absorbance at 540 nm with a Bioscreen plate reader.
The complete positive haemolysis control was determined in a TRIS buffer solution which contained 200 μM melittin (Sigma-Aldrich, Spain)
The percentage of haemolysis (H) was determined using the following equation: H=100×[Op−Ob)/(Om−Ob)]
Where OP as the optical density measured for a determined peptide concentration, Ob was the optical density of the buffer solution, and Om was the optical density for the positive control with melittin.

[4] = tested on: Xanthomonas vesicatori 2133-2; experiment: Minimum inhibitory concentration (MIC), microbial growth by optical density; settings: 48 h incubation at 25° C., TSB medium
Procedure: All the bacteria were stored at a temperature of −80° C. in Luria-Bertani (LB) medium supplemented with 20% glycerine in volume/volume.
In all cases they were resuspended in sterile water to obtain a suspension adjusted to an absorbance of 0.2 to 60 nm, which approximately corresponds to 10^8 colony forming units.
To determine the minimum inhibitory concentration (MIC), the peptides were solubilized in milli-Q sterile water until a final concentration of 1000 μM and they were filtered through a 0.22 μm pore size filter.
Dilutions of the peptides of the invention were made to obtained solutions at the concentrations of 750, 500, 250, 200, 150, 125, 100, 75, 50 and 25 μM.
20 μl of each dilution were mixed with 20 μl of the suspension of the corresponding bacterial indicator, and 160 μl of the TSB (Trypticase Soy Broth) liquid medium until a total volume of 200 μl in each well of a microplate.
Two replicas were carried out for each strain, concentration and peptide under study.
The positive controls contained water instead of peptide, and the negative controls contained the peptides without the bacterial suspension.
The microbial growth was determined automatically by optical density at 600 nm using the Microbiology Analyser Bioscreen C (Labsystems)
The microplates were incubated at 25° C. for 48 hours with stirring for 20 seconds before measuring the absorbance every hour. Each experiment was performed twice.

Molecule | range of concentrations including the MIC, E. amylovora [1] [µM] | range of concentrations including the MIC, P. syringae [2] [µM] | % Haemolysis 50 μM [3] [%] | % Haemolysis 150 μM [3] [%] | % Haemolysis 250 μM [3] [%] | range of concentrations including the MIC, X. vesicatoria [4] [µM]
CC[C@H](C)[C@H](NC(=O)[C@H](CCCCN)NC(=O)[C@H](CCCCN)NC(=O)[C@H](Cc1ccccc1)NC(=O)[C@H](CC(C)C)NC(=O)[C@H](CCCCN)NC(=O)[C@H](CCCCN)NC(C)=O)C(=O)N[C@@H](CC(C)C)C(=O)N[C@@H](CCCCN)C(=O)N[C@@H](Cc1ccc(O)cc1)C(=O)N[C@@H](CC(C)C)C(N)=O [BP101] | >7.5 | 5 to 7.5 | 4 | 31 | 62 | 2.5
LKLFKKILKFL-NH2 [BP081] | 2.5 to 5 | 2.5 to 5 | 10 | 65 | 88 | <2.5
Ac-WKLFKKILKWL-NH2 [BP038] | >7.5 | >7.5 | 80 | 86 | 80 | <2.5
FKLFKKILKFL-NH2 [BP066] | 2.5 to 5 | 5 to 7.5 | 9 | 63 | 89 | 2.5 to 5
CC[C@H](C)[C@H](NC(=O)[C@H](CCCCN)NC(=O)[C@H](CCCCN)NC(=O)[C@H](Cc1ccccc1)NC(=O)[C@H](CC(C)C)NC(=O)[C@H](CCCCN)NC(=O)[C@@H](N)Cc1ccc(O)cc1)C(=O)N[C@@H](CC(C)C)C(=O)N[C@@H](CCCCN)C(=O)N[C@@H](Cc1ccc(O)cc1)C(=O)N[C@@H](CC(C)C)C(N)=O [BP095] | 5 to 7.5 | 5 to 7.5 | 7 | 50 | 76 | 2.5 to 5
CC[C@H](C)[C@H](NC(=O)[C@H](CCCCN)NC(=O)[C@H](CCCCN)NC(=O)[C@H](Cc1ccccc1)NC(=O)[C@H](CC(C)C)NC(=O)[C@H](CCCCN)NC(=O)[C@H](CCCCN)NS(=O)(=O)c1ccc(C)cc1)C(=O)N[C@@H](CC(C)C)C(=O)N[C@@H](CCCCN)C(=O)N[C@@H](Cc1ccccc1)C(=O)N[C@@H](CC(C)C)C(N)=O [BP078] | 5 to 7.5 | 5 to 7.5 | 40 | 85 | 95 | <2.5
CC[C@H](C)[C@H](NC(=O)[C@H](CCCCN)NC(=O)[C@H](CCCCN)NC(=O)[C@H](Cc1ccccc1)NC(=O)[C@H](CC(C)C)NC(=O)[C@H](CCCCN)NC(=O)[C@H](CCCCN)NS(=O)(=O)c1ccc(C)cc1)C(=O)N[C@@H](CC(C)C)C(=O)N[C@@H](CCCCN)C(=O)N[C@@H](Cc1ccc(O)cc1)C(=O)N[C@@H](CC(C)C)C(N)=O [BP102] | 5 to 7.5 | 2.5 to 5 | 39 | 79 | 80 | <2.5
WKLFKKILKWL-NH2 [BP018] | 5 to 7.5 | 5 to 7.5 | 78 | 68 | 74 | 2.5
YKLFKKILKWL-NH2 [BP047] | 5 to 7.5 | 5 to 7.5 | 81 | 76 | 82 | 2.5 to 5
CC[C@H](C)[C@H](NC(=O)[C@H](CCCCN)NC(=O)[C@H](CCCCN)NC(=O)[C@H](Cc1ccccc1)NC(=O)[C@H](CC(C)C)NC(=O)[C@H](CCCCN)NC(=O)[C@H](Cc1c[nH]c2ccccc12)NCc1ccccc1)C(=O)N[C@@H](CC(C)C)C(=O)N[C@@H](CCCCN)C(=O)N[C@H](C(=O)N[C@@H](CC(C)C)C(N)=O)C(C)C [BP011] (H-[X1]KLFKKILKVL-NH2) | 5 to 7.5 | 5 to 7.5 | 81 | 96 | 100 | 2.5 to 5
CC[C@H](C)[C@H](NC(=O)[C@H](CCCCN)NC(=O)[C@H](CCCCN)NC(=O)[C@H](Cc1ccccc1)NC(=O)[C@H](CC(C)C)NC(=O)[C@H](CCCCN)NC(=O)[C@H](Cc1ccc(O)cc1)NS(=O)(=O)c1ccc(C)cc1)C(=O)N[C@@H](CC(C)C)C(=O)N[C@@H](CCCCN)C(=O)N[C@@H](CCCCN)C(=O)N[C@@H](CC(C)C)C(N)=O [BP121] (Tos-YKLFKKILKKL-NH2) | >7.5 | 2.5 to 5 | 22 | 81 | 86 | 2.5 to 5
CC[C@H](C)[C@H](NC(=O)[C@H](CCCCN)NC(=O)[C@H](CCCCN)NC(=O)[C@H](Cc1ccccc1)NC(=O)[C@H](CC(C)C)NC(=O)[C@H](CCCCN)NC(=O)[C@H](Cc1ccc(O)cc1)NS(=O)(=O)c1ccc(C)cc1)C(=O)N[C@@H](CC(C)C)C(=O)N[C@@H](CCCCN)C(=O)N[C@@H](Cc1ccc(O)cc1)C(=O)N[C@@H](CC(C)C)C(N)=O [BP097] | >7.5 | >7.5 | 83 | 81 | 88 | <2.5
CC[C@H](C)[C@H](NC(=O)[C@H](CCCCN)NC(=O)[C@H](CCCCN)NC(=O)[C@H](Cc1ccccc1)NC(=O)[C@H](CC(C)C)NC(=O)[C@H](CCCCN)NC(=O)[C@H](CCCCN)NC(=O)c1ccccc1)C(=O)N[C@@H](CC(C)C)C(=O)N[C@@H](CCCCN)C(=O)N[C@H](C(=O)N[C@@H](CC(C)C)C(N)=O)C(C)C [BP031] | 2.5 to 5 | 5 to 7.5 | 34 | 71 | 76 | <2.5
CC[C@H](C)[C@H](NC(=O)[C@H](CCCCN)NC(=O)[C@H](CCCCN)NC(=O)[C@H](Cc1ccccc1)NC(=O)[C@H](CC(C)C)NC(=O)[C@H](CCCCN)NC(=O)[C@@H](N)CC(C)C)C(=O)N[C@@H](CC(C)C)C(=O)N[C@@H](CCCCN)C(=O)N[C@@H](Cc1ccc(O)cc1)C(=O)N[C@@H](CC(C)C)C(N)=O [BP105] | 5 | 5 to 7.5 | 14 | 91 | 90 | 2.5 to 5
